Laboratory results from the NIST ThermoML archive (doi:10.1021/je400722h).
± gives the expanded uncertainty stated by the source.

Assay: molar heat capacity at constant pressure; xn = mol fraction of the nth substance listed
Conditions: 101 kPa, Liquid, Small sample (50 mg) DSC

Cc1ccccc1Cl [2-chlorotoluene] + C1COCCO1
molar heat capacity at constant pressure [J/K/mol]
Conditions | 298.15 K | 303.15 K | 308.15 K
x1 = 0.0903 | 155.43 ± 2.4 | 156.69 ± 2.4 | 158.03 ± 2.5
x1 = 0.1278 | 156.54 ± 2.4 | 157.84 ± 2.5 | 159.2 ± 2.5
x1 = 0.1654 | 157.65 ± 2.4 | 158.98 ± 2.5 | 160.36 ± 2.5
x1 = 0.2006 | 158.69 ± 2.5 | 160.04 ± 2.5 | 161.44 ± 2.5
x1 = 0.2343 | 159.68 ± 2.5 | 161.05 ± 2.5 | 162.46 ± 2.5
x1 = 0.2765 | 160.9 ± 2.5 | 162.3 ± 2.5 | 163.73 ± 2.5
x1 = 0.3004 | 161.59 ± 2.5 | 163 ± 2.5 | 164.44 ± 2.5
x1 = 0.3421 | 162.78 ± 2.5 | 164.21 ± 2.5 | 165.66 ± 2.6
x1 = 0.3876 | 164.06 ± 2.5 | 165.52 ± 2.6 | 166.99 ± 2.6
x1 = 0.4002 | 164.41 ± 2.5 | 165.87 ± 2.6 | 167.35 ± 2.6
x1 = 0.4327 | 165.31 ± 2.6 | 166.79 ± 2.6 | 168.28 ± 2.6
x1 = 0.4726 | 166.39 ± 2.6 | 167.9 ± 2.6 | 169.41 ± 2.6
x1 = 0.5117 | 167.43 ± 2.6 | 168.97 ± 2.6 | 170.5 ± 2.6
x1 = 0.5401 | 168.17 ± 2.6 | 169.73 ± 2.6 | 171.28 ± 2.6
x1 = 0.5915 | 169.49 ± 2.6 | 171.09 ± 2.6 | 172.67 ± 2.7
x1 = 0.6305 | 170.45 ± 2.6 | 172.09 ± 2.7 | 173.7 ± 2.7
x1 = 0.6721 | 171.46 ± 2.7 | 173.13 ± 2.7 | 174.77 ± 2.7
x1 = 0.7198 | 172.57 ± 2.7 | 174.28 ± 2.7 | 175.95 ± 2.7
x1 = 0.7401 | 173.03 ± 2.7 | 174.76 ± 2.7 | 176.44 ± 2.7
x1 = 0.7623 | 173.53 ± 2.7 | 175.27 ± 2.7 | 176.97 ± 2.7
x1 = 0.8004 | 174.36 ± 2.7 | 176.13 ± 2.7 | 177.84 ± 2.8
x1 = 0.8432 | 175.26 ± 2.7 | 177.05 ± 2.7 | 178.78 ± 2.8
x1 = 0.8856 | 176.11 ± 2.7 | 177.92 ± 2.8 | 179.66 ± 2.8
x1 = 0.9165 | 176.7 ± 2.7 | 178.52 ± 2.8 | 180.26 ± 2.8

Cc1ccccc1Cl [2-chlorotoluene] + C1COCO1
molar heat capacity at constant pressure [J/K/mol]
Conditions | 298.15 K | 303.15 K | 308.15 K
x1 = 0.0865 | 127.97 ± 2 | 129.15 ± 2 | 130.3 ± 2
x1 = 0.1145 | 129.85 ± 2 | 131.07 ± 2 | 132.27 ± 2
x1 = 0.1386 | 131.45 ± 2 | 132.71 ± 2.1 | 133.94 ± 2.1
x1 = 0.1829 | 134.37 ± 2.1 | 135.68 ± 2.1 | 136.97 ± 2.1
x1 = 0.2145 | 136.42 ± 2.1 | 137.77 ± 2.1 | 139.09 ± 2.1
x1 = 0.2573 | 139.17 ± 2.2 | 140.56 ± 2.2 | 141.91 ± 2.2
x1 = 0.2965 | 141.65 ± 2.2 | 143.06 ± 2.2 | 144.45 ± 2.2
x1 = 0.3217 | 143.22 ± 2.2 | 144.65 ± 2.2 | 146.05 ± 2.3
x1 = 0.3506 | 144.99 ± 2.2 | 146.45 ± 2.3 | 147.87 ± 2.3
x1 = 0.3902 | 147.38 ± 2.3 | 148.87 ± 2.3 | 150.31 ± 2.3
x1 = 0.4216 | 149.24 ± 2.3 | 150.75 ± 2.3 | 152.22 ± 2.4
x1 = 0.4654 | 151.78 ± 2.4 | 153.32 ± 2.4 | 154.82 ± 2.4
x1 = 0.5007 | 153.78 ± 2.4 | 155.35 ± 2.4 | 156.88 ± 2.4
x1 = 0.5418 | 156.06 ± 2.4 | 157.66 ± 2.4 | 159.23 ± 2.5
x1 = 0.5905 | 158.68 ± 2.5 | 160.33 ± 2.5 | 161.94 ± 2.5
x1 = 0.6218 | 160.32 ± 2.5 | 162.01 ± 2.5 | 163.64 ± 2.5
x1 = 0.663 | 162.44 ± 2.5 | 164.17 ± 2.5 | 165.83 ± 2.6
x1 = 0.6902 | 163.81 ± 2.5 | 165.56 ± 2.6 | 167.25 ± 2.6
x1 = 0.7118 | 164.88 ± 2.5 | 166.65 ± 2.6 | 168.36 ± 2.6
x1 = 0.7534 | 166.91 ± 2.6 | 168.72 ± 2.6 | 170.46 ± 2.6
x1 = 0.7927 | 168.78 ± 2.6 | 170.62 ± 2.6 | 172.38 ± 2.7
x1 = 0.8426 | 171.11 ± 2.6 | 172.98 ± 2.7 | 174.76 ± 2.7
x1 = 0.8914 | 173.35 ± 2.7 | 175.22 ± 2.7 | 177 ± 2.7
x1 = 0.9206 | 174.66 ± 2.7 | 176.53 ± 2.7 | 178.31 ± 2.8
